Experimental findings from patent US3993642A, “Penicillins” (Bayer Aktiengesellschaft, priority 1973, dated 1976) are described below.

SMILES strings stand for the structures.

One data set has as its system Pseudomonas F 41. In words: MIC, test tube series dilution test. It counts as cell-based. The following applies: 24 hours, 37°C, liquid medium. The text has this:
|D(+) Dextrose (Merck) 10 g

Another data set concerns Pseudomonas Walter. Briefly: MIC, test tube series dilution test. The following applies: 24 hours, 37°C, liquid medium.
For data set [1], the system named is Proteus, indole-positive, sp. In words: Freedom from cloudiness in Muller-Hinton broth. Format: cell-based. The following applies: 100 μg/ml, 24 hours.
For data set [2], the system named is Corynebacterium diphteriae gravis. Briefly: Freedom from cloudiness in Muller-Hinton broth. Format: cell-based. The following applies: 100 μg/ml, 24 hours.
Another data set concerns Proteus vulgaris 1017. In words: Freedom from cloudiness in Muller-Hinton broth. It counts as cell-based. Conditions: 100 μg/ml, 24 hours.
The subject of data set [3] is Pseudomonas aeruginosa sp. Briefly: Freedom from cloudiness in Muller-Hinton broth. Format: cell-based. The following applies: 100 μg/ml, 24 hours.
In data set [4] the test system is Corynebacterium pyogenes M. In words: Freedom from cloudiness in Muller-Hinton broth. Format: cell-based. Conditions: 100 μg/ml, 24 hours.
A further data set deals with E.coli B. Briefly: MIC, test-tube dilution method. It counts as cell-based.
The subject of the next data set is Bacteroides sp. Briefly: Freedom from cloudiness in Muller-Hinton broth. It counts as cell-based. The following applies: 100 μg/ml, 24 hours.
The next data set concerns Proteus vulg. Briefly: MIC, test-tube dilution method.
The subject of another data set is Staph.aureus 133. In words: MIC, test-tube dilution method.
The next data set concerns Salmonella sp. Briefly: Freedom from cloudiness in Muller-Hinton broth. Format: cell-based. The following applies: 100 μg/ml, 24 hours. On the procedure:
(§1) The compounds of the invention are also active against other genera of bacteria. This is shown by the following experiment, which was carried out with the compound of Example 1.
(§2) The compound of Example 1 was diluted to 100 μg/ml with Muller-Hinton nutrient broth, with the addition of 0.1% glucose. The nutrient solution in each case contained 1 × 10^5 to 2 × 10^5 bacteria per milliliter. The test tubes containing this mixture was incubated for 24 hours in each case and the degree of cloudiness was subsequently determined.

The next data set concerns Shigella sp. In words: Freedom from cloudiness in Muller-Hinton broth. Format: cell-based. Conditions: 100 μg/ml, 24 hours. The protocol: as §1, §2
Data set [5] concerns Pasteurella psuedotuberculosis. Briefly: Freedom from cloudiness in Muller-Hinton broth. Format: cell-based. The following applies: 100 μg/ml, 24 hours. The protocol: as §1, §2
For the next data set, the system named is Klebsiella 63. In words: Freedom from cloudiness in Muller-Hinton broth. It counts as cell-based. The following applies: 100 μg/ml, 24 hours.
Another data set has as its system E. coli C 165. In words: Animal experiments with white mice infected intraperitoneally. The following applies: subcutaneously, 1 × (1 administration, 30 minutes after infection). It counts as in vivo, white mice of strain CF1. On the procedure: (§3) The white mice of strain CF1 were infected intraperitoneally with the species of bacteria indicated in each case. |Animal experiments with white mice: |Determination of the ED50 after 24 hours. | Dose in units of the | penicillin compound of | Example 1 per kg, given |Germ subcutaneously |Therapy: | 1 administration: | 30 minutes after infection The ED50 is a dose at which 50% of the infected animals still survive after 24 hours.

For the next data set, the system named is Staphyloccus aureus. The description is as above. Format: in vivo, white mice of strain CF1. Conditions: subcutaneously, 1 × (1 administration, 30 minutes after infection). The protocol:
as §3

Another data set concerns Borrelia sp. In words: Freedom from cloudiness in Muller-Hinton broth. The following applies: 100 μg/ml, 24 hours. Format: cell-based.
The subject of data set [6] is Staphylococcus aureus 133. Briefly: Freedom from cloudiness in Muller-Hinton broth. Format: cell-based. Conditions: 100 μg/ml, 24 hours.
The test system of a further data set is E.coli C 165. In words: Freedom from cloudiness in Muller-Hinton broth. Conditions: 100 μg/ml, 24 hours. It counts as cell-based.
A further data set deals with Lactobacillus sp. In words: Freedom from cloudiness in Muller-Hinton broth. It counts as cell-based. The following applies: 100 μg/ml, 24 hours.
In another data set the test system is E.coli 14. Briefly: Freedom from cloudiness in Muller-Hinton broth. It counts as cell-based. Conditions: 100 μg/ml, 24 hours.
The next data set concerns Enterococcus sp. Briefly: Freedom from cloudiness in Muller-Hinton broth. Format: cell-based. The following applies: 100 μg/ml, 24 hours.
In another data set the test system is Klebsiella K 10. In words: Freedom from cloudiness in Muller-Hinton broth. The following applies: 100 μg/ml, 24 hours. Format: cell-based.
The next data set deals with Clostridium botulinium. Format: cell-based. Conditions: 100 μg/ml, 24 hours.
A further data set has as its system E.coli 26/6. In words: MIC, test-tube dilution method.
In data set [7] the test system is Bordetella bronchiseptica. In words: Freedom from cloudiness in Muller-Hinton broth. Format: cell-based. Conditions: 100 μg/ml, 24 hours.
For a further data set, the system named is Haemophilus influenzae. In words: Freedom from cloudiness in Muller-Hinton broth. It counts as cell-based. Conditions: 100 μg/ml, 24 hours.
The next data set has as its system Enterococcus ATCC 9790. Briefly: MIC, test-tube dilution method.
For the next data set, the system named is Brucella sp. It counts as cell-based. Conditions: 100 μg/ml, 24 hours.
The subject of data set [8] is Neisseria catarrhalis sp. In words: Freedom from cloudiness in Muller-Hinton broth. It counts as cell-based. The following applies: 100 μg/ml, 24 hours.
The test system of another data set is Aeromonas hydrophila sp. Briefly: Freedom from cloudiness in Muller-Hinton broth. Format: cell-based. The following applies: 100 μg/ml, 24 hours.
A further data set concerns Klebsiella pneum. Briefly: MIC, test-tube dilution method.
For another data set, the system named is Clostridium tetani. It counts as cell-based. Conditions: 100 μg/ml, 24 hours.
The next data set relates to Serratia sp. Briefly: Freedom from cloudiness in Muller-Hinton broth. Format: cell-based. Conditions: 100 μg/ml, 24 hours.
For the next data set, the system named is Streptococcus pyogenes W. In words: Freedom from cloudiness in Muller-Hinton broth. It counts as cell-based. The following applies: 100 μg/ml, 24 hours.
A further data set has as its system Proteus morg. Briefly: MIC, test-tube dilution method.
The next data set has as its system Enterobacter sp. In words: Freedom from cloudiness in Muller-Hinton broth. It counts as cell-based. Conditions: 100 μg/ml, 24 hours.
Data set [9] has as its system Proteus, indole-negative, sp. In words: Freedom from cloudiness in Muller-Hinton broth. Format: cell-based. The following applies: 100 μg/ml, 24 hours.
The subject of data set [10] is Diplococcus pneumoniae sp. In words: Freedom from cloudiness in Muller-Hinton broth. It counts as cell-based. Conditions: 100 μg/ml, 24 hours.
The subject of another data set is Pseudomonas aeruginosa W. Briefly: Animal experiments with white mice infected intraperitoneally. Format: in vivo, white mice of strain CF1. The following applies: subcutaneously, 4 × (per administration; 30 minutes, 2, 4 and 6 hours after infection). The protocol:
(§4) The white mice of strain CF1 were infected intraperitoneally with the species of bacteria indicated in each case. |Animal experiments with white mice: |Determination of the ED50 after 24 hours. | Dose in units of the | penicillin compound of | Example 1 per kg, given |Germ subcutaneously |Therapy: | 4 administrations: | 30 minutes, 2 hours, 4 hours | and 6 hours after infection The ED50 is a dose at which 50% of the infected animals still survive after 24 hours.

Data set [11] relates to Pseudomonas aeruginosa F 41. The data set is described as above. Format: in vivo, white mice of strain CF1. The following applies: subcutaneously, 4 × (per administration; 30 minutes, 2, 4 and 6 hours after infection). On the procedure:
as §4

Data set [12] can be described thus: Solubility noted during working up. Format: physicochemical. The text has this: Yield 42% of sodium D(-) -α-[(3-oxo-4-methyl-pyrazolidin-1-yl)-carbonylamino]-benzylpenicillin.

In the case of `CC1(C)S[C@@H]2[C@H](NC(=O)C(C(=O)O)c3ccccc3)C(=O)N2[C@H]1C(=O)O` (stereo partly drawn) [Carbenicillin, reference compound], the MIC against Pseudomonas F 41 is given as more than 200 μ/ml; against Pseudomonas Walter, 200 μ/ml.
Regarding `Cc1cn(C(=O)N[C@@H](C(=O)N[C@@H]2C(=O)N3[C@@H]2SC(C)(C)[C@@H]3C(=O)O)c2ccc(O)cc2)[nH]c1=O` [Example 8, Sodium D(-)-α-[(4-methyl-5-oxo-3-pyrazolin-2-yl)-carbonylamino]-p-hydroxybenzylpenicillin], the MIC in the data set on Pseudomonas F 41 is 8 - 16 μ/ml; with Pseudomonas Walter, 8 μ/ml.
`CC1CN(C(=O)N[C@@H](C(=O)N[C@@H]2C(=O)N3[C@@H]2SC(C)(C)[C@@H]3C(=O)O)c2ccccc2)NC1=O` (single isomer, unassigned) [Example 11 C, sodium D(-) -α-[(3-oxo-4-methyl-pyrazolidin-1-yl)-carbonylamino]-benzylpenicillin]: the MIC against Pseudomonas Walter was 16 - 64 μ/ml.
For `Cc1cn(C(=O)N[C@@H](C(=O)N[C@@H]2C(=O)N3[C@@H]2SC(C)(C)[C@@H]3C(=O)O)C2=CCC=CC2)[nH]c1=O` [Example 9, Sodium D(-)-α-[(4-methyl-5-oxo-3-pyrazolin-2-yl)-carbonylamino]-α-(cyclohexa-1,4-dien-1-yl)-methylpenicillin], the MIC is listed as 8 - 16 μ/ml in the data set on Pseudomonas F 41 and 16 - 32 μ/ml with Pseudomonas Walter.
For `Cc1cn(C(=O)N[C@@H](C(=O)N[C@@H]2C(=O)N3[C@@H]2SC(C)(C)[C@@H]3C(=O)O)c2ccccc2)[nH]c1=O` [Example 1 B, sodium D(-)-α-[(4-methyl-5-oxo-3-pyrazolin-2-yl)-carbonylamino]-benzylpenicillin], the MIC in the data set on Pseudomonas F 41 was found to be 8 μ/ml; against E.coli B, 32 U/ml; against Proteus vulg., 128 U/ml; with Staph.aureus 133, 0.5 U/ml; in the data set with Pseudomonas Walter, 8 μ/ml; in the data set on E.coli 26/6, 1 U/ml. Besides, the MIC against Enterococcus ATCC 9790 is recorded as 32 U/ml; in the data set on Klebsiella pneum., 128 U/ml; with Proteus morg., 128 U/ml. Besides, the Freedom from cloudiness result (in data set [1]; in [2]; in the data set with Proteus vulgaris 1017; in [3]; in [4]; with Bacteroides sp.) was “free of cloudiness” each time. For the same compound, the Freedom from cloudiness result (with Salmonella sp.; with Shigella sp.; in [5]; in the data set on Klebsiella 63; in the data set on Borrelia sp.; in data set [6]) was “free of cloudiness” in each case. Moreover, the Freedom from cloudiness result with E.coli C 165, in the data set on Lactobacillus sp., with E.coli 14, with Enterococcus sp., in the data set on Klebsiella K 10 and with Clostridium botulinium was “free of cloudiness” throughout. Further, the Freedom from cloudiness result (in [7]; in the data set with Haemophilus influenzae; in the data set on Brucella sp.; in data set [8]; in the data set on Aeromonas hydrophila sp.; with Clostridium tetani) was “free of cloudiness” in each case. The Freedom from cloudiness result (in the data set with Serratia sp.; with Streptococcus pyogenes W; with Enterobacter sp.; in data set [9]; in [10]) was “free of cloudiness” in each case. Besides, the “ED50 after 24 hours” value is listed as 200,000 units per kg in the data set with E. coli C 165, 40,000 units per kg in the data set with Staphyloccus aureus, 75,000 units per kg in the data set on Pseudomonas aeruginosa W and 100,000 units per kg in data set [11].
On to `CC1(C)S[C@@H]2[C@H](NC(=O)[C@H](NC(=O)N3CCC(=O)N3)c3ccccc3)C(=O)N2[C@H]1C(=O)O` [Example 10 C, Sodium D(-)-α-[(3-oxo-pyrazolidin-1-yl)-carbonylamino]-benzylpenicillin], for which the MIC against Pseudomonas Walter was 8 - 16 μ/ml.
With `CC1(C)S[C@@H]2[C@H](NC(=O)[C@H](NC(=O)n3cc(-c4ccccc4)c(=O)[nH]3)c3ccccc3)C(=O)N2[C@H]1C(=O)O` [Example 2 C, sodium D(-)-α-[(4-phenyl-5-oxo-3-pyrazolin-2-yl)-carbonylamino]-penzylpenicillin], the MIC in the data set with Pseudomonas F 41 and in the data set with Pseudomonas Walter was 4 μ/ml throughout.
For `CC1(C)S[C@@H]2[C@H](NC(=O)[C@H](N)c3ccccc3)C(=O)N2[C@H]1C(=O)O` [Ampicillin, α-aminobenzylpenicillin, reference compound], the MIC with Pseudomonas F 41 and in the data set with Pseudomonas Walter was more than 400 μ/ml in each case.
Take `CC1(C)S[C@@H]2[C@H](NC(=O)[C@H](NC(=O)N3NC(=O)CC3c3ccccc3)c3ccccc3)C(=O)N2[C@H]1C(=O)O` (single isomer, unassigned) [Example 14, sodium D(-)-α-[(3-oxo-5-phenyl-pyrazolidin-1-yl)-carbonylamino]-benzylpenicillin]: the MIC against Pseudomonas Walter is reported as 4 - 16 μ/ml.
Turning to `CC1CN(C(=O)N[C@@H](C(=O)N[C@@H]2C(=O)N3[C@@H]2SC(C)(C)[C@@H]3C(=O)O)c2ccccc2)NC1=O` (single isomer, unassigned) [free penicillic acid, D(-)-α-[(3-oxo-4-methyl-pyrazolidin-1-yl)-carbonylamino]-benzylpenicillin], the “solubility in ethyl acetate” value in data set [12] (ethyl acetate) is on record as “sparingly soluble”. Besides, the solubility in water entry in data set [12] (water) was “sparingly soluble”.
